Data: patent US7820623B2 (priority 2006, dated 2010)
Bridge positions count the residues as written; N and C are the ends. Peptide text beside a SMILES is read from it.

Columns and labels:
human Kv1.3 = human Kv1.3 (Homo sapiens, UniProt P22001); type: cell-based; design: expressed in transfected cells
[1] = tested on: thapsigargin-induced IFN-g production in human whole blood; type: cell-based; conditions: read-out: Analogue Activity (IC50) WB/IFNg
[2] = tested on: thapsigargin-induced IL-2 production in human whole blood; conditions: read-out: Analogue Activity (IC50) WB/IL-2

Sequence of human Kv1.3 (P22001 whole entry): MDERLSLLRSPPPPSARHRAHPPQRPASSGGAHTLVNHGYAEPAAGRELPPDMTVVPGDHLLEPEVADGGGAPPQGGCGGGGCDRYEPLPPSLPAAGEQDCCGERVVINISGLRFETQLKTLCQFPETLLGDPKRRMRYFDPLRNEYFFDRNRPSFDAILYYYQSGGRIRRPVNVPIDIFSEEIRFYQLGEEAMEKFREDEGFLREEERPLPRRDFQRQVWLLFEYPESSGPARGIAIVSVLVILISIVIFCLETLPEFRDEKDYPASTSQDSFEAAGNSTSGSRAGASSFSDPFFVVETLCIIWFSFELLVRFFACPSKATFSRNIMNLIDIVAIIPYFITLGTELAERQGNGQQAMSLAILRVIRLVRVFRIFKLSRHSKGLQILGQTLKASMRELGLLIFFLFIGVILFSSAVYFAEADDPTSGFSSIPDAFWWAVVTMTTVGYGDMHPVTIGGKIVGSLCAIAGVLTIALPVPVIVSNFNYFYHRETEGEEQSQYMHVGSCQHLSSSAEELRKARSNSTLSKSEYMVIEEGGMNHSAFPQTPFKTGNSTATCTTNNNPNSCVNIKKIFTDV

| Compound | Kv1.3 Selectivity (= Kv1.1/Kv.3 IC50) (human Kv1.3) | IC50 [1] [nM] | IC50 [2] [nM] |
| --- | --- | --- | --- |
| CC[C@H](C)[C@@H]1NC(=O)[C@H](CCCCN)NC(=O)[C@@H](NC(=O)[C@H](CCCCN)NC(=O)[C@@H](NC(=O)[C@H](CC(N)=O)NC(=O)[C@@H](NC(=O)[C@@H](NC(=O)[C@@H](NC(=O)CN)C(C)C)[C@@H](C)CC)[C@@H](C)CC)C(C)C)CSSC[C@@H]2NC(=O)[C@H](CCCCN)NC(=O)CNC(=O)[C@H](Cc3ccccc3)NC(=O)[C@H](CCCNC(=N)N)NC(=O)[C@H](CCSC)NC(=O)CNC(=O)[C@H](C)NC(=O)[C@H](CCCCN)NC(=O)[C@H](CCCCN)NC(=O)[C@@H]3CSSC[C@@H](C(=O)N[C@H](C(=O)N4CCC[C@H]4C(=O)N[C@@H](CCCCN)C(=O)O)[C@@H](C)O)NC(=O)[C@H](CCC(=O)O)NC(=O)[C@H](CSSC[C@H](NC(=O)[C@H](CCC(N)=O)NC(=O)[C@H](CCCNC(=N)N)NC(=O)[C@H](CO)NC1=O)C(=O)N[C@@H](CC(C)C)C(=O)N[C@@H](CCC(=O)O)C(=O)N1CCC[C@H]1C(=O)N3)NC(=O)[C@H](CCCCN)NC(=O)CNC(=O)[C@H](CC(N)=O)NC(=O)[C@H](CCSC)NC2=O [H34E] (H-GVIINVKCKISRQCLEPCKKAGMRFGKCMNGKCECTPK-OH; disulfide 8-28, 14-33, 18-35) | 30 | 2.38 | 1.62 |
| CC[C@H](C)[C@@H]1NC(=O)[C@H](CCCCN)NC(=O)[C@@H](NC(=O)[C@H](CCCCN)NC(=O)[C@@H](NC(=O)[C@H](CC(N)=O)NC(=O)[C@@H](NC(=O)[C@@H](NC(=O)[C@@H](NC(=O)CN)C(C)C)[C@@H](C)CC)[C@@H](C)CC)C(C)C)CSSC[C@@H]2NC(=O)[C@H](CCCCN)NC(=O)CNC(=O)[C@H](Cc3ccccc3)NC(=O)[C@H](CCCNC(=N)N)NC(=O)[C@H](CCSC)NC(=O)CNC(=O)[C@H](C)NC(=O)[C@H](CCCCN)NC(=O)[C@H](CCCCN)NC(=O)[C@@H]3CSSC[C@@H](C(=O)N[C@H](C(=O)N4CCC[C@H]4C(=O)N[C@@H](CCCCN)C(=O)O)[C@@H](C)O)NC(=O)[C@H](Cc4c[nH]cn4)NC(=O)[C@H](CSSC[C@H](NC(=O)[C@H](CCC(N)=O)NC(=O)[C@H](CCCNC(=N)N)NC(=O)[C@H](CCCNC(=N)N)NC1=O)C(=O)N[C@@H](CC(C)C)C(=O)N[C@@H](CCC(=O)O)C(=O)N1CCC[C@H]1C(=O)N3)NC(=O)[C@H](CCCCN)NC(=O)CNC(=O)[C@H](CC(N)=O)NC(=O)[C@H](CCSC)NC2=O [S11R] (H-GVIINVKCKIRRQCLEPCKKAGMRFGKCMNGKCHCTPK-OH; disulfide 8-28, 14-33, 18-35) | 228 | 4.07 | 2.12 |
| CC[C@H](C)[C@@H]1NC(=O)[C@H](CCCCN)NC(=O)[C@@H](NC(=O)[C@H](CCCCN)NC(=O)[C@@H](NC(=O)[C@H](CC(N)=O)NC(=O)[C@@H](NC(=O)[C@@H](NC(=O)[C@@H](NC(=O)CN)C(C)C)[C@@H](C)CC)[C@@H](C)CC)C(C)C)CSSC[C@@H]2NC(=O)[C@H](CCCCN)NC(=O)CNC(=O)[C@H](Cc3ccccc3)NC(=O)[C@H](CCCNC(=N)N)NC(=O)[C@H](CCSC)NC(=O)CNC(=O)[C@H](C)NC(=O)[C@H](CCCCN)NC(=O)[C@H](CCCCN)NC(=O)[C@@H]3CSSC[C@@H](C(=O)N[C@H](C(=O)N4CCC[C@H]4C(=O)N[C@@H](CCCCN)C(=O)O)[C@@H](C)O)NC(=O)[C@H](Cc4c[nH]cn4)NC(=O)[C@H](CSSC[C@H](NC(=O)[C@H](CCC(N)=O)NC(=O)[C@H](CCCNC(=N)N)NC(=O)[C@H](CO)NC1=O)C(=O)N[C@@H](CC(C)C)C(=O)N[C@@H](CCC(=O)O)C(=O)N1CCC[C@H]1C(=O)N3)NC(=O)[C@H](CCCCN)NC(=O)CNC(=O)[C@H](C)NC(=O)[C@H](CCSC)NC2=O [N30A] (H-GVIINVKCKISRQCLEPCKKAGMRFGKCMAGKCHCTPK-OH; disulfide 8-28, 14-33, 18-35) | 14 | 0.637 | 0.971 |
